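Results reflect a 48-hour exposure of cells in 96-well plates to compound at five concentrations. At the TGI there is no net growth.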
What was measured:
Assay in all cases: inhibition of tumour cell growth, NCI panel, 48 h
HT29 colon = system: HT29 colon
HL-60(TB) leukemia = system: HL-60(TB) leukemia
SR leukemia = system: SR leukemia
KM12 colon = system: KM12 colon
MCF7 breast = system: MCF7 breast
LOX IMVI melanoma = system: LOX IMVI melanoma
NCI-H460 lung = system: NCI-H460 lung
CCRF-CEM leukemia = system: CCRF-CEM leukemia
UACC-257 melanoma = system: UACC-257 melanoma
TK-10 renal = system: TK-10 renal
PC-3 prostate = system: PC-3 prostate
OVCAR-8 ovarian = system: OVCAR-8 ovarian

| Structure (SMILES) | TGI (HT29 colon) [µM] | TGI (HL-60(TB) leukemia) [µM] | TGI (SR leukemia) [µM] | TGI (KM12 colon) [µM] | TGI (MCF7 breast) [µM] | TGI (LOX IMVI melanoma) [µM] | TGI (NCI-H460 lung) [µM] | TGI (CCRF-CEM leukemia) [µM] | TGI (UACC-257 melanoma) [µM] | TGI (TK-10 renal) [µM] | TGI (PC-3 prostate) [µM] | TGI (OVCAR-8 ovarian) [µM] |
| --- | --- | --- | --- | --- | --- | --- | --- | --- | --- | --- | --- | --- |
| CC1=CP(=O)(c2c(C(C)C)cc(C(C)C)cc2C(C)C)CCC1Cl (stereo not drawn) | 41.8 | 42.8 | 23 | 40.2 | 35.5 | 47.2 | 35.3 | 65.4 | 24.9 | 30.7 | 28 | 52.9 |
| CCCCCCCCCCCCCCCCNc1ccn(C2CC(O)C(COC(c3ccccc3)(c3ccccc3)c3ccc(OC)cc3)O2)c(=O)n1 (stereo not drawn) | > 100 | > 100 | > 100 | > 100 | > 100 | > 100 | > 100 | > 100 | – | > 100 | > 100 | > 100 |
| COc1ccccc1C(=O)NCC1CCCN2CCCCC12 (stereo not drawn) | > 100 | > 100 | > 100 | > 100 | > 100 | > 100 | > 100 | > 100 | > 100 | > 100 | > 100 | > 100 |
| CC(=O)OC1[C@H](OC(C)=O)C2=C(C)[C@@H](OC(C)=O)C[C@@]2(C(C)(C)O)[C@@H](OC(C)=O)[C@H]2[C@@]1(C)[C@@H](OC(C)=O)CC(OC(C)=O)[C@]21CO1 (stereo partly drawn) | > 100 | > 100 | > 100 | > 100 | > 100 | > 100 | – | > 100 | > 100 | > 100 | > 100 | > 100 |
| Cc1cc2nc3c(C#N)c4c(c(-c5ccc(Cl)cc5)n3c2cc1C)CCC4 | 40.5 | 48.3 | 45.7 | 47.8 | > 100 | 90.6 | > 100 | 70.7 | 41.4 | 60.5 | 97.7 | – |
| CC1=C(C)CC2(C=C(C(C)(C)C)C(=O)C(C(C)(C)C)=C2)SC1 | 43 | 64.6 | > 100 | 55 | 36.6 | 33.1 | > 100 | 51 | > 100 | 37.9 | 73.8 | – |
| c1ccc2c(c1)cc1n2CCc2c-1[nH]c1ccccc21 | > 10 | > 10 | > 10 | > 10 | > 10 | > 10 | > 10 | > 10 | > 10 | > 10 | > 10 | > 10 |
| Cc1cccc(CC(Cc2ccc(C)cc2C(=O)O)C(=O)O)c1 (stereo not drawn) | > 100 | > 100 | > 100 | > 100 | > 100 | > 100 | > 100 | > 100 | > 100 | > 100 | > 100 | > 100 |
| COc1cc(OC)c2c(c1)OC(c1cccnc1)C(c1ccccc1)C2=O (stereo not drawn) | > 100 | > 100 | > 100 | > 100 | > 100 | > 100 | > 100 | > 100 | > 100 | > 100 | > 100 | > 100 |
| CC(C)=CC[C@]12CCN(C)[C@H]1N(S(=O)(=O)c1ccccc1)c1ccccc12 | > 100 | > 74.6 | > 100 | > 100 | > 72.9 | > 51.6 | > 73.5 | > 100 | > 89.6 | > 100 | 98.6 | > 100 |
| Br[C@@H]1[C@H]2c3nc4ccccc4nc3[C@@H]1C[C@H]2Br | > 100 | > 100 | > 100 | > 100 | > 100 | > 100 | > 100 | > 100 | > 100 | > 100 | > 100 | > 100 |
| C/C(=C/CC[C@]1(CO)CC[C@]2(C)[C@H](CC[C@@H]3[C@@]4(C)CC[C@H](OC5OC(CO)C(O)C(O)C5OC5OC(CO)C(O)C(O)C5O)C(C)(C)[C@@H]4CC[C@]32C)[C@H]1O)CO (stereo partly drawn) | > 100 | > 100 | > 100 | > 100 | > 100 | > 100 | > 100 | > 100 | > 100 | > 100 | > 100 | > 100 |
| COc1cc2c(/C=C3/C(=O)Nc4ccc(Cl)cc43)c(Cl)[nH]c2cc1C | 7.54 | 13.6 | 0.926 | 10 | 34.9 | 6.25 | 13.9 | 0.933 | 22.4 | 8.48 | 11.6 | 19.7 |
| O=C1CN(c2cccc(Cl)c2)C(=O)CN1NCNN1CC(=O)N(c2cccc(Cl)c2)CC1=O | > 100 | > 100 | > 100 | > 100 | > 100 | – | > 100 | > 100 | > 100 | > 100 | > 100 | > 100 |
| CC1OC2OC3C(OCC(O)C3O)OC(=O)[C@]34CCC(C)(C)CC3C3=CCC5[C@@]6(C)C[C@H](O)[C@H](OC7OC(CO)C(O)C(O)C7OC7OCC(OC(=O)CC(C)(O)CC(=O)OC1C(O)C2O)C(O)C7O)[C@@](C)(CO)C6CC[C@@]5(C)[C@]3(C)CC4 (stereo partly drawn) | 10.4 | 4.11 | 20.3 | 10.5 | 26.4 | 21.7 | 23.9 | 24 | 6.69 | 19.2 | 6.72 | 15.8 |
| COc1ccc(NCC(=O)Nn2c(-c3ccccc3)nc3ccccc3c2=O)cc1 | > 100 | > 100 | > 100 | > 100 | 41.2 | 44 | > 100 | > 100 | > 100 | > 100 | > 100 | > 100 |
| C[C@]12CC(c3ccccc3O1)C(C(=O)Nc1nc(C34CC5CC(CC(C5)C3)C4)cs1)C(=O)N2 (stereo partly drawn) | > 100 | > 100 | > 100 | > 100 | > 100 | > 100 | > 100 | > 100 | > 100 | – | > 100 | > 100 |

From PubChem BioAssay (NCI)
